Test results: patent publication US20140296176A1, “COMBINATION CANCER THERAPY WITH AN HSP90 INHIBITOR AND AN ANTIMETABOLITE” (Synta Pharmaceuticals Corp., priority 2011, published 2014)

How the values were obtained:
[1] = tested on: HCT-116 colorectal cancer cells; assay: alamarBlue cell viability assay, HCT-116 cells; format: cell-based; conditions: Homo sapiens, 72 hr drug exposure
Experimental: (§1) Human HCT-116 colorectal cancer cells (CRC) were purchased from the American Type Culture Collection (Manassas, Va.) and grown in McCoy's 5a media (Sigma), following ATCC recommendations, in the presence of fetal bovine serum (10%), 2 mM L-glutamine and antibiotics (100 IU/ml penicillin and 100 μg/ml streptomycin, Sigma). Cells were maintained at 37° C., 5% CO2 atmosphere.
Cell viability was measured using the alamarBlue assay (Invitrogen). In brief, cells were plated in 96-well plates in triplicate at 5K cells per well and incubated at 37° C., 5% CO2 atmosphere for 24 hr prior to the addition of drug or vehicle (0.3% DMSO) to the culture medium. […] Fluorescence (560EX/590EM nM) was measured with a SpectraMax microplate reader (Molecular Devices) and the resulting data were used to calculate cell viability, normalized to vehicle control.
After HCT-116 cells were exposed to drug for 72 hr, cell viability was measured and results were fit to a four parameter logistic model (XLFit, ID Business Solutions).
(§2) Combinations between ganetespib and fluorouracil were then performed in HCT-116 cells concurrently based on the IC50 for each agent in matrix format with 54 combination pairs for each drug. The combined drugs, as well as each drug alone, were incubated with the cells for 3 days and the surviving fraction of cells relative to control was determined using the alamarBlue assay.

MOLT-4 cells = assay: alamarBlue cell viability assay, MOLT-4 cells; format: cell-based; conditions: Homo sapiens, 72 hr drug exposure, four parameter logistic fit
Experimental: as §1, with “MOLT-3, MOLT-4 and Jurkat T cell leukemia” for “HCT-116 colorectal cancer”, “cells” for “cells (CRC)”, “RPMI” for “McCoy's 5a media”
Cell viability was measured using the alamarBlue assay (Invitrogen). In brief, cells were plated in 96-well plates in triplicate at 20K, 15K or 15K cells per well for MOLT-3, MOLT-4 or Jurkat cells respectively, and incubated at 37° C., 5% CO2 atmosphere for 24 hr prior to the addition of drug or vehicle (0.3% DMSO) to the culture medium. After 72 hr, 10 μl/well Alamar Blue was added to the wells and incubated for an additional 3 hr at 37° C., 5% CO2 atmosphere. Fluorescence (560EX/590EM nM) was measured with a SpectraMax microplate reader (Molecular Devices) and the resulting data were used to calculate cell viability, normalized to vehicle control.
After MOLT-4 cells were exposed to drug for 72 hr, cell viability was measured and results were fit to a four parameter logistic model (XLFit, ID Business Solutions) shown in FIG. 1.
as §2, with “the nucleoside analog Ara-G” for “fluorouracil”, “MOLT-4” for “HCT-116”, “agent.” for “agent in matrix format with 54 combination pairs for each drug.”

[2] = tested on: KRAS substrates, including BRAF and CRAF; assay: destabilization of KRAS substrates in KRAS mutant NSCLC cells; format: cell-based, human; conditions: leading to inactivation of downstream effectors and programmed cell death
[3] = tested on: human KRAS mutant NSCLC tumor xenografts; assay: KRAS mutant NSCLC tumor xenografts in vivo; set-up: species or system mouse
[4] = tested on: NSCLC having a KRAS mutation; assay: Phase 2 trial with ganetespib; format: in vivo, human; conditions: at 8 weeks
[5] = tested on: KRAS mutant NSCLC cell lines; assay: cell viability in panel of KRAS mutant NSCLC cell lines; format: cell-based; conditions: Homo sapiens; across 15 KRAS mutant NSCLC cell lines in vitro
Experimental: For combinatorial analysis, cells were seeded in 96-well plates at a predetermined, optimum growth density for 24 h prior to the addition of drug or vehicle to the culture medium. Drug combinations were applied at a non-constant ratio over a range of concentrations for 72 or 96 hours. […] Cell viability was assessed by either AlamarBlue® (Invitrogen, Carlsbad, Calif.) or CellTiter-Glo® assays and normalized to vehicle controls. For each combination study, the level of growth inhibition (fraction affected) is plotted relative to vehicle control. Data are presented as one relevant combination point and the corresponding single agent data for each cell line tested.

| Compound | IC50 [1] | IC50 (MOLT-4 cells) | destabilization of KRAS substrates [2] | growth of tumor xenografts [3] | patients exhibiting tumor shrinkage [4] | IC50 [5] |
| --- | --- | --- | --- | --- | --- | --- |
| O=c1[nH]cc(F)c(=O)[nH]1 [5-FU, 5-fluorouracil, reference compound] | ~4500 nM | – | – | – | – | – |
| Nc1ccn([C@@H]2O[C@H](CO)[C@@H](O)[C@@H]2O)c(=O)n1 [Ara-C, cytarabine] | – | ~25 nM | – | – | – | – |
| CC(C)c1cc(-c2nnc(O)n2-c2ccc3c(ccn3C)c2)c(O)cc1O [ganetespib, 3-(2,4-dihydroxy-5-isopropyl-phenyl)-4-(1-methyl-indol-5-yl)-5-hydroxy-[1,2,4]triazole] | ~32 nM | ~20 nM | induced the destabilization | effectively suppressed the growth | > 60% | 24 nM |
| COc1nc(N)nc2c1ncn2[C@@H]1O[C@H](CO)[C@@H](O)[C@@H]1O [Ara-G, nelarabine] | – | ~2000 nM | – | – | – | – |
